In patent publication US8895558B2, “Arylpiperazine-containing pyrrole 3-carboxamide derivatives for treating depressive disorders” (Green Cross Corporation, priority 2008, dated 2014):
Structures can show the parent of a compound that is named as a salt.

Legend:
[1] = biological target: T1, human serotonin transporter (Homo sapiens, UniProt P31645); test: Binding affinity for serotonin transporter ([3H]Imipramine); conditions: HEK-293 membranes, 2 nM [3H]Imipramine
T1 construct: purchased PerkinElmer; host or cells: HEK-293
Protocol: For serotonin transporter binding assays, a reaction mixture with a final volume of 0.25 ml was prepared by mixing a test compound, human serotonin transporter membrane expressed in HEK-293 cells (PerkinElmer, 5 ug/well), [^3H]Imipramine (PerkinElmer, 2 nM) and 50 mM Tris-HCl (pH 7.4) buffer containing 120 mM NaCl and 5 mM KCl. The reaction mixture was incubated for 30 min at 27, and harvested through filtermate. A glass fiber filter presoaked in 0.5% PEI with ice cold 50 mM Tris-HCl buffer (pH 7.4) containing 0.9% NaCl.

[2] = biological target: T2, human recombinant serotonin 5-HT2A receptor (Homo sapiens, UniProt P28223); test: Binding affinity for serotonin 5-HT2A receptor ([3H]Ketanserin); conditions: CHO-K1 expressed receptor, 1 nM [3H]Ketanserin
T2 construct: purchased PerkinElmer Life and Analytical Sciences, USA; host or cells: CHO-K1
Protocol: Receptor binding affinities of the compounds for serotonin receptors were measured by the method described in the literature [Park W K et al., Pharmacol Biochem Behav. 2005, 82(2), 361-372].
For serotonin 5-HT2A binding, an aliquot of human recombinant serotonin 5-HT2A receptor (PerkinElmer Life and Analytical Sciences, USA) expressed in CHO-K1 cells (5 ug/well) and 1 nM [^3H]Ketanserin (PerkinElmer) were used in the presence of mianserin (20 uM) as nonspecific. The reaction mixture was incubated for 60 min at 27 using 50 mM Tris-HCl (pH 7.4) buffer containing 4 mM CaCl2 and 0.1% ascorbic acid, and harvested through filtermate A glass fiber filter (Wallac, Finland) presoaked in 0.5% polyethyleneimine (PEI) by microbeta filtermate-96 harvester (PerkinElmer) to terminate the reaction, and then washed with ice cold 50 mM Tris-HCl buffer solution (pH 7.4). The filter was then covered with MeltiLex, sealed in a sample bag, dried in an oven. The radioactivity retained in the filter was finally counted using MicroBeta Plus (Wallac).
(§1) The binding affinity (IC50) of a compound for the receptor was calculated by computerized nonlinear regression analysis (GraphPad Prism Program, San Diego, USA) using 7-8 varied concentrations of the compound run in duplicate tubes.

[3] = biological target: T3, human recombinant 5-HT2C receptor (Homo sapiens, UniProt P28335); test: Binding affinity for serotonin 5-HT2C receptor ([3H]Mesulergine); conditions: CHO-K1 membranes, 1.3 nM [3H]Mesulergine
T3 construct: purchased PerkinElmer
T3 sequence (P28335 33-458): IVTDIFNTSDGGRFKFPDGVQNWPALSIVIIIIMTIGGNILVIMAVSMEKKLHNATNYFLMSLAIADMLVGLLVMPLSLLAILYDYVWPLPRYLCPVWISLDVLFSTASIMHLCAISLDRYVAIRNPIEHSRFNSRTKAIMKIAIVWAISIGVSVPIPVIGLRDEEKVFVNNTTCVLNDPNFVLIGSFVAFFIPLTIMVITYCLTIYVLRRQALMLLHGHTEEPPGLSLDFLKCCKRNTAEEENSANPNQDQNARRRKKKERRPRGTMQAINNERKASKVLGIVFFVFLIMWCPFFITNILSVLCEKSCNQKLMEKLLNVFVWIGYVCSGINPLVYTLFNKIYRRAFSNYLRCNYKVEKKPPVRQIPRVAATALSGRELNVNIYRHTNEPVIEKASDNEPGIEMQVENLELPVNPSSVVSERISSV
Protocol: Receptor binding affinities of the compounds for serotonin receptors were measured by the method described in the literature [Park W K et al., Pharmacol Biochem Behav.
as §1
Nonspecific binding was determined using 100 uM mianserin. The incubations were performed for 60 min at 27, and these were terminated by rapid filtration through filtermate. A glass fiber filter presoaked in 0.5% PEI.

T1 sequence (P31645 whole entry): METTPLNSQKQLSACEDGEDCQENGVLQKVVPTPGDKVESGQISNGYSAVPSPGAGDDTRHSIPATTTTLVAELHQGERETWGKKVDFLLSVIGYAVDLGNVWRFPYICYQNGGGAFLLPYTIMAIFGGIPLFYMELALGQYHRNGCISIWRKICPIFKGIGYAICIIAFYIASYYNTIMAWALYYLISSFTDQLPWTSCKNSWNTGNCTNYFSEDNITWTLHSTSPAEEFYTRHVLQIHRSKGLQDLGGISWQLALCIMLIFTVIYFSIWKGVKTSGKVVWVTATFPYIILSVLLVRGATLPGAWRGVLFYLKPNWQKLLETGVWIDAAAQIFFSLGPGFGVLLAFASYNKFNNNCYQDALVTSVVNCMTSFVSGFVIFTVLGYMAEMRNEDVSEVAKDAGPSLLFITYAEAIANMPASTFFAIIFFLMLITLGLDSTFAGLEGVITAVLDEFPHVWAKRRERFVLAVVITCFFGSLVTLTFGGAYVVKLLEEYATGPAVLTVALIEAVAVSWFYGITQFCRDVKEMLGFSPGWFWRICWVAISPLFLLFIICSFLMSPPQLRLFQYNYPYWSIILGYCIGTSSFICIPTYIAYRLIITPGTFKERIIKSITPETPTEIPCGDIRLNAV
T2 sequence (P28223 whole entry): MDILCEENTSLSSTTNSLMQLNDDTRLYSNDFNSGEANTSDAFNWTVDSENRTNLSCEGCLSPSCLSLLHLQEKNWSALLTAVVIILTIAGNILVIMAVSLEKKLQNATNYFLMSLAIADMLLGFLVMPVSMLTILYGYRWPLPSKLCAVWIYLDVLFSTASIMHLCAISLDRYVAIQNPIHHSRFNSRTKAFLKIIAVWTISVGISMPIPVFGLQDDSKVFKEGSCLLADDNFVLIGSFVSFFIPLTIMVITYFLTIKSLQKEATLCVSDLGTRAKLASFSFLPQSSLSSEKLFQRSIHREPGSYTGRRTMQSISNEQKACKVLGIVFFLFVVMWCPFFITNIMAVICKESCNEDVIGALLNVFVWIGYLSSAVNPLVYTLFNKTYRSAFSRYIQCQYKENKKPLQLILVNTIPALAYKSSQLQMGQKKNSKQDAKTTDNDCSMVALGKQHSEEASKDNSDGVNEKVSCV

| SMILES | IC50 [1] | IC50 [2] | IC50 [3] |
| --- | --- | --- | --- |
| CCn1c(-c2ccc(Cl)cc2)cc(C(=O)NCCCN2CCN(c3cccc(C)c3C)CC2)c1C [Example 63, 5-(4-chlorophenyl)-N-(3-(4-(2,3-dimethylphenyl)piperazin-1-yl)propyl)-1-ethyl-2-methyl-1H-pyrrole-3-carboxamide hydrochloride] | 93 nM | 151 nM | 39 nM |
| Cc1[nH]c(-c2ccccc2)cc1C(=O)NCCCCN1CCN(c2cccc(Cl)c2Cl)CC1 [Example 41, N-(4-(4-(2,3-dichlorophenyl)piperazin-1-yl)butyl)-2-methyl-5-phenyl-1H-pyrrole-3-carboxamide hydrochloride] | 21 nM | 13 nM | 14 nM |
| Cc1[nH]c(-c2ccc(Cl)cc2)cc1C(=O)NCCCN1CCN(c2cccc(Cl)c2Cl)CC1 [Example 45, 5-(4-chlorophenyl)-N-(3-(4-(2,3-dichlorophenyl)piperazin-1-yl)propyl)-2-methyl-1H-pyrrole-3-carboxamide hydrochloride] | 56 nM | 105 nM | 106 nM |
| Cc1[nH]c(-c2ccccc2)c(C)c1C(=O)NCCCCN1CCN(c2cccc(Cl)c2Cl)CC1 [Example 78, N-(4-(4-(2,3-dichlorophenyl)piperazin-1-yl)butyl)-2,4-dimethyl-5-phenyl-1H-pyrrole-3-carboxamide hydrochloride] | 74 nM | 19 nM | 10 nM |
| Cc1c(C(=O)NCCCN2CCN(c3cccc(Cl)c3Cl)CC2)cc(-c2ccc(Cl)cc2)n1C [Example 62, 5-(4-chlorophenyl)-N-(3-(4-(2,3-dichlorophenyl)piperazin-1-yl)propyl)-1,2-dimethyl-1H-pyrrole-3-carboxamide hydrochloride] | 733 nM | 232 nM | 39 nM |
| CCCCc1cc(C(=O)NCCCN2CCN(c3cccc(Cl)c3Cl)CC2)c(C)n1C [Example 138, 5-butyl-N-(3-(4-(2,3-dichlorophenyl)piperazin-1-yl)propyl)-1,2-dimethyl-1H-pyrrole-3-carboxamide] | 334 nM | 134 nM | 268 nM |
| CCCn1c(-c2ccccc2)cc(C(=O)NCCCCN2CCN(c3cccc(Cl)c3Cl)CC2)c1C [Example 34, N-(4-(4-(2,3-dichlorophenyl)piperazin-1-yl)butyl)-2-methyl-5-phenyl-1-propyl-1H-pyrrole-3-carboxamide hydrochloride] | 76 nM | 104 nM | 20.9 nM |
| Cc1c(C(=O)NCCCN2CCN(c3cccc(Cl)c3)CC2)cc(-c2ccccc2)n1-c1ccc(F)cc1 [Example 14, N-(3-(4-(3-chlorophenyl)piperazin-1-yl)propyl)-1-(4-fluorophenyl)-2-methyl-5-phenyl-1H-pyrrole-3-carboxamide] | 80.2 nM | 22.9 nM | 443 nM |
| Cc1cccc(N2CCN(CCCNC(=O)c3cc(-c4ccc(Cl)cc4)n(C)c3C)CC2)c1C [Example 61, 5-(4-chlorophenyl)-N-(3-(4-(2,3-dimethylphenyl)piperazin-1-yl)propyl)-1,2-dimethyl-1H-pyrrole-3-carboxamide hydrochloride] | 129 nM | 213 nM | 129 nM |
| CCCn1c(-c2ccccn2)cc(C(=O)NCCN2CCN(c3cccc(Cl)c3Cl)CC2)c1C [Example 96, N-(2-(4-(2,3-dichlorophenyl)piperazin-1-yl)ethyl)-2-methyl-1-propyl-5-(pyridin-2-yl)-1H-pyrrole-3-carboxamide dihydrochloride] | 381 nM | 410 nM | 619 nM |
| O=C(NCCCN1CCN(c2cccc(Cl)c2Cl)CC1)c1c[nH]c(-c2ccccc2)c1 [Example 124, N-(3-(4-(2,3-dichlorophenyl)piperazin-1-yl)propyl)-5-phenyl-1H-pyrrole-3-carboxamide] | 54 nM | 23 nM | 106 nM |
| Cc1c(C(=O)NCCCN2CCN(c3cccc(Cl)c3Cl)CC2)cc(-c2ccccc2)n1-c1ccc(F)cc1 [Example 16, N-(3-(4-(2,3-dichlorophenyl)piperazin-1-yl)propyl)-1-(4-fluorophenyl)-2-methyl-5-phenyl-1H-pyrrole-3-carboxamide] | 266 nM | 4.1 nM | 466 nM |
| O=C(NCCCN1CCN(c2cccc(Cl)c2Cl)CC1)c1cc(-c2ccccc2)[nH]c1Cl [Example 114, 2-chloro-N-(3-(4-(2,3-dichlorophenyl)piperazin-1-yl)propyl)-5-phenyl-1H-pyrrole-3-carboxamide] | 59 nM | 22 nM | 107 nM |
| Cc1c(C(=O)NCCCN2CCN(c3cc(Cl)ccc3Cl)CC2)cc(-c2ccccc2)n1C [Example 156, N-(3-(4-(2,5-Ddichlorophenyl)piperazin-1-yl)propyl)-1,2-dimethyl-5-phenyl-1H-pyrrole-3-carboxamide] | 134 nM | 585 nM | 806 nM |
| CCCn1c(-c2ccccc2)cc(C(=O)N(C)CCCN2CCN(c3cccc(Cl)c3Cl)CC2)c1C [Example 31, N-(3-(4-(2,3-dichlorophenyl)piperazin-1-yl)propyl)-N,2-dimethyl-5-phenyl-1-propyl-1H-pyrrole-3-carboxamide hydrochloride] | 102 nM | 33.2 nM | 20.7 nM |
| CCn1c(-c2ccc(Cl)cc2)cc(C(=O)NCCN2CCN(c3cccc(Cl)c3Cl)CC2)c1C [Example 69, 5-(4-chlorophenyl)-N-(2-(4-(2,3-dichlorophenyl)piperazin-1-ypethyl)-1-ethyl-2-methyl-1H-pyrrole-3-carboxamide hydrochloride] | 220 nM | 412 nM | 29 nM |
| Cc1cccc(N2CCN(CCCNC(=O)c3cc(-c4ccccc4)n(CC4CCCCC4)c3C)CC2)c1C [Example 21, 1-(Cyclohexylmethyl)-N-(3-(4-(2,3-dimethylphenyl)piperazin-1-yl)propyl)-2-methyl-5-phenyl-1H-pyrrole-3-carboxamide] | 352 nM | 1230 nM | 638 nM |
| COc1cccc(-c2cc(C(=O)NCCCN3CCN(c4cccc(Cl)c4Cl)CC3)c(C)[nH]2)c1 [Example 83, N-(3-(4-(2,3-dichlorophenyl)piperazin-1-yl)propyl)-5-(3-methoxyphenyl)-2-methyl-1H-pyrrole-3-carboxamide hydrochloride] | 59 nM | 20 nM | 20 nM |
| Cc1[nH]c(-c2ccccc2)cc1C(=O)NCCCN1CCN(c2cccc(Cl)c2)CC1 [Example 23, N-(3-(4-(3-chlorophenyl)piperazin-1-yl)propyl)-2-methyl-5-phenyl-1H-pyrrole-3-carboxamide] | 92 nM | 245 nM | 280 nM |
| Cc1cccc(N2CCN(CCCNC(=O)c3cc(-c4ccccc4)n(C)c3C)CC2)c1C [Example 3, N-(3-(4-(2,3-dimethylphenyl)piperazin-1-yl)propyl)-1,2-dimethyl-5-phenyl-1H-pyrrole-3-carboxamide] | 11.8 nM | 57 nM | 133 nM |
| Cc1cccc(N2CCN(CCCNC(=O)c3cc(-c4ccccc4)n(CC(C)C)c3C)CC2)c1C [Example 27, N-(3-(4-(2,3-dimethylphenyl)piperazin-1-yl)propyl)-1-isobutyl-2-methyl-5-phenyl-1H-pyrrole-3-carboxamide] | 350 nM | 897 nM | 1300 nM |
